# Results published in patent US7795259B2, “Pyrrolopyrazines and pyrazolopyrazines useful as inhibitors of protein kinases” (Vertex Pharmaceuticals Incorporated, priority 2004, dated 2010).
# Target: T1, full length Aurora-A (AA 1-403) (Homo sapiens, UniProt O14965)
# T1 sequence (O14965 1-403): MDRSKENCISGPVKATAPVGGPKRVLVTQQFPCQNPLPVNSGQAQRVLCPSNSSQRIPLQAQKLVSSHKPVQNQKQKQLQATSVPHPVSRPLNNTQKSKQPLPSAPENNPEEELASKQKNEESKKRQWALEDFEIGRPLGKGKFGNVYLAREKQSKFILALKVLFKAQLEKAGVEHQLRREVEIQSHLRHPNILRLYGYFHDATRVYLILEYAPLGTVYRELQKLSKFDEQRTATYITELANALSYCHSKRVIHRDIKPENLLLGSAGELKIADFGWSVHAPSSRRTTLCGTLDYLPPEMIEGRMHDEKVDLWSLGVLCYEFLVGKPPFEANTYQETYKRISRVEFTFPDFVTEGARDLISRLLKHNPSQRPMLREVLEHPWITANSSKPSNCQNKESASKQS
# Test: AuroraA Inhibition Assay (coupled enzyme system)
# Type: biochemical
# Settings: 200 μM ATP, 800 μM peptide LRRASLG, 35 nM Aurora-A, 30° C.
# Experimental: Compounds were screened for their ability to inhibit full length Aurora-A (AA 1-403) activity using a standard coupled enzyme system (Fox et al., Protein Sci., 7, pp. 2249 (1998)). Reactions were carried out in a solution containing 100 mM HEPES (pH 7.5), 10 mM MgCl2, 25 mM NaCl, 300 μM NADH, 1 mM DTT and 3% DMSO. Final substrate concentrations in the assay were 200 μM ATP (Sigma Chemicals, St Louis, Mo.) and 800 μM peptide (LRRASLG, American Peptide, Sunnyvale, Calif.). Reactions were carried out at 30° C. and 35 nM Aurora-A. Final concentrations of the components of the coupled enzyme system were 2.5 mM phosphoenolpyruvate, 200 μM NADH, 60 μg/ml pyruvate kinase and 20 μg/ml lactate dehydrogenase.
# An assay stock buffer solution was prepared containing all of the reagents listed above with the exception of ATP and the test compound of interest. The assay stock buffer solution (60 μl) was incubated in a 96 well plate with 2 μl of the test compound of interest at final concentrations spanning 0.002 μM to 30 μM at 30° C. for 10 min. […] Rates of reaction were obtained using a Molecular Devices Spectramax plate reader (Sunnyvale, Calif.) over 10 min at 30° C. The Ki values were determined from the rate data as a function of inhibitor concentration using computerized nonlinear regression (Prism 3.0, Graphpad Software, San Diego, Calif.).
row,SMILES,Ki [nM]
1,"Clc1cnc2[nH]cc(-c3cccc(Br)c3)c2n1 [Compound I-1, 7-(3-Bromo-phenyl)-2-chloro-5H-pyrrolo[2,3-b]pyrazine]",< 200
2,C[C@H](Nc1nc(-c2c[nH]c3ncc(Cl)nc23)ncc1F)c1ccc(F)cc1 [Compound I-28],< 200
